For the experiment, the system named is hepatocellular carcinoma cell line Hub-7. The experiment is described as follows: Cell proliferation assay, Hub-7 (CELL-TITER GLO). The settings on record: Hub-7 cells, 24 h incubation, cell viability by CELL-TITER GLO, top concentration 10 μM; read-out: EC50, Inhibition of Hub-7 Cell Proliferation. Type of experiment: cell-based. Summed up: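 Hub-7 cells, 4,000 per well, seeded overnight, then exposed 24 h to compound from 10 μM top in 3-fold serial dilution. Viability read by CELL-TITER GLO luminescence; EC50 derived and binned into potency categories.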
For `C#Cc1nc(C(=O)NCc2cccc(Cl)c2)c(C)s1` [Compound C52, N-(3-Chlorobenzyl)-2-ethynyl-5-methylthiazole-4-carboxamide], the EC50 fell in the range of 200 to 1000 nM.

In the case of `C#Cc1nc(C(=O)NCCc2cccc(NS(C)(=O)=O)c2)cs1` [Compound C81, 2-Ethynyl-N-(3-(methylsulfonamido)phenethyl)thiazole-4-carboxamide], the EC50 was in the range of 1000 to 5000 nM.

As for `C#Cc1nc(NC(=O)[C@@H](N)Cc2ccccc2C#N)cs1` [Compound E8, (S)-2-Amino-3-(2-cyanophenyl)-N-(2-ethynylthiazol-4-yl)propenamide], the EC50 lay in the range of 1000 to 5000 nM.

On to `C#Cc1nc(C(=O)NCCc2ccc(-c3ccccc3C(=O)NC)cc2)cs1` [Compound C12, 2-Ethynyl-N-(2-(2′-(methylcarbamoyl)-[1,1′-biphenyl]-4-yl)ethyl)thiazole-4-carboxamide], for which the EC50 is 1000 to 5000 nM.

Regarding `C#Cc1nc(C(=O)NCCc2ccc(-c3cscn3)cc2)cs1` [Compound C53, 2-Ethynyl-N-(4-(thiazol-4-yl)phenethyl)thiazole-4-carboxamide], the EC50 was 200 to 1000 nM.

In the case of `C#Cc1nc(C(=O)NCc2ccc(-c3ccccc3)cc2)cs1` [Compound C114, N-([1,1′-Biphenyl]-4-ylmethyl)-2-ethynylthiazole-4-carboxamide], the EC50 was not above 200 nM.

With `C#Cc1nc(C(=O)NCCc2cccc(-c3cncs3)c2)cs1` [Compound E6, 2-Ethynyl-N-(3-(thiazol-5-yl)phenethyl)thiazole-4-carboxamide], the EC50 fell in the range of 200 to 1000 nM.

`C#Cc1nc(C(=O)NCCc2ccc(-c3cccc4c3cnn4C)cc2)cs1` [Compound C33, 2-Ethynyl-N-(4-(1-methyl-1H-indazol-4-yl)phenethyl)thiazole-4-carboxamide]: the EC50 lay within 200 to 1000 nM.

Turning to `C#Cc1nc(C(=O)NCCc2ccc(-c3ccccc3S(C)(=O)=O)cc2)cs1` [Compound C15, 2-Ethynyl-N-(2-(2′-(methylsulfonyl)-[1,1′-biphenyl]-4-yl)ethyl)thiazole-4-carboxamide], the EC50 is 200 to 1000 nM.

Turning to `C#Cc1nc(C(=O)NCCc2cccc(-c3cccc4[nH]ccc34)c2)cs1` [Compound C36, N-(3-(1H-Indol-4-yl)phenethyl)-2-ethynylthiazole-4-carboxamide], the EC50 lay within 200 to 1000 nM.

Regarding `C#Cc1nc(C(=O)NCc2ccccc2CO)cs1` [Compound C70, 2-Ethynyl-N-(2-(hydroxymethyl)benzyl)thiazole-4-carboxamide], the EC50 is 1000 to 5000 nM.

With `C#Cc1nc(NC(=O)[C@H](N)Cc2ccccc2)cs1` [Compound E3, (R)-2-Amino-N-(2-ethynylthiazol-4-yl)-3-phenylpropanamide], the EC50 fell in the range of 200 to 1000 nM.

Regarding `C#Cc1nc(C(=O)NCCc2ccc(-c3c(C(N)=O)ccc4ncsc34)cc2)cs1` [Compound C3, 7-(4-(2-(2-Ethynylthiazole-4-carboxamido)ethyl)phenyl)benzo[d]thiazole-6-carboxamide], the EC50 was in the range of 200 to 1000 nM.

For the compound `C#Cc1nc(C(=O)NCCc2cccc(-c3cccc4nn(C)cc34)c2)cs1` [Compound C29, 2-Ethynyl-N-(3-(2-methyl-2H-indazol-4-yl)phenethyl)thiazole-4-carboxamide], the EC50 lay in the range of 200 to 1000 nM.

As for `C#Cc1nc(C(=O)N2CCC(c3ccccc3)CC2)cs1` [Compound D29, (2-Ethynylthiazol-4-yl)(4-phenylpiperidin-1-yl)methanone], the EC50 lay within 200 to 1000 nM.

For the compound `C#Cc1nc(C(=O)NCCc2ccc(-c3cccc4nccnc34)cc2)cs1` [Compound C11, 2-Ethynyl-N-(4-(quinoxalin-5-yl)phenethyl)thiazole-4-carboxamide], the EC50 was in the range of 200 to 1000 nM.

For `C#Cc1nc(C(=O)NCc2ccc3ccccc3c2)cs1` [Compound C64, 2-Ethynyl-N-(naphthalen-2-ylmethyl)thiazole-4-carboxamide], the EC50 was not above 200 nM.

Turning to `C#Cc1nc(NC(=O)NCc2ccc(-c3ccccc3S(=O)(=O)NC)cc2)cs1` [Compound A13, 4′-((3-(2-Ethynylthiazol-4-yl)ureido)methyl)-N-methyl-[1,1′-biphenyl]-2-sulfonamide], the EC50 was 200 to 1000 nM.

Consider `C#Cc1nc(C(=O)NCc2ccccc2Cl)cs1` [Compound C143, N-(2-Chlorobenzyl)-2-ethynylthiazole-4-carboxamide], for which the EC50 fell in the range of 200 to 1000 nM.

As to `C#Cc1nc(C(=O)NCCc2cccc(Cl)c2)cs1` [Compound C110, N-(3-Chlorophenethyl)-2-ethynylthiazole-4-carboxamide], the EC50 was in the range of 200 to 1000 nM.

For `C#Cc1nc(C(=O)NCc2cccc(-c3cnn(C)c3)c2)cs1` [Compound C59, 2-Ethynyl-N-(3-(1-methyl-1H-pyrazol-4-yl)benzyl)thiazole-4-carboxamide], the EC50 fell in the range of 1000 to 5000 nM.

On to `C#Cc1nc(NC(=O)N2CCC(c3ccc(-c4cccc5ncsc45)cc3)CC2)cs1` [Compound B6, 4-(4-(Benzo[d]thiazol-7-yl)phenyl)-N-(2-ethynylthiazol-4-yl)piperidine-1-carboxamide], for which the EC50 is not above 200 nM.

With `C#Cc1nc(NC(=O)NCc2ccc(-c3cc4ncsc4c4c3CNC4=O)cc2)cs1` [Compound A4, 1-(2-Ethynylthiazol-4-yl)-3-(4-(8-oxo-7,8-dihydro-6H-thiazolo[5,4-e]isoindol-5-yl)benzyl)urea], the EC50 was in the range of 200 to 1000 nM.

Take `C#Cc1nc(C(=O)NCc2cccc(CC(=O)OC)c2)cs1` [Compound C46, Methyl 2-(3-((2-ethynylthiazole-4-carboxamido)methyl)phenyl)acetate]: the EC50 was in the range of 200 to 1000 nM.

Turning to `C#Cc1nc(C(=O)NCc2cccc(CC(N)=O)c2)cs1` [Compound C47, N-(3-(2-Amino-2-oxoethyl)benzyl)-2-ethynylthiazole-4-carboxamide], the EC50 fell in the range of 1000 to 5000 nM.

For the compound `C#Cc1nc(C(=O)N2CCN(c3ccc(-c4cccc5ncsc45)cn3)CC2)cs1` [Compound D10, (4-(5-(Benzo[d]thiazol-7-yl)pyridin-2-yl)piperazin-1-yl)(2-ethynylthiazol-4-yl)-methanone], the EC50 is not above 200 nM.

In the case of `C#Cc1nc(C(=O)NCCc2ccc(-c3cccc4c3C(=O)CC4)cc2)cs1` [Compound C18, 2-Ethynyl-N-(4-(3-oxo-2,3-dihydro-1H-inden-4-yl)phenethyl)thiazole-4-carboxamide], the EC50 lay in the range of 200 to 1000 nM.

For the compound `C#Cc1nc(C(=O)N2CCCC(O)C2)cs1` (centres unmarked) [Compound D34, (2-Ethynylthiazol-4-yl)(3-hydroxypiperidin-1-yl)methanone], the EC50 is more than 5000 nM.

Turning to `C#Cc1nc(NC(=O)NCc2ccc(-c3cccc(N4CCCC4)c3)cc2)cs1` [Compound A7, 1-(2-Ethynylthiazol-4-yl)-3-((3′-(pyrrolidin-1-yl)-[1,1′-biphenyl]-4-yl)methyl)urea], the EC50 was not above 200 nM.

Regarding `C#Cc1nc(C(=O)N2CCC(c3ccc(-c4cccc5c4cnn5C)cc3)CC2)cs1` [Compound D20, (2-Ethynylthiazol-4-yl)(4-(4-(1-methyl-1H-indazol-4-yl)phenyl)piperidin-1-yl)-methanone], the EC50 was not above 200 nM.

As to `C#Cc1nc(NC(=O)N2CCCC2c2ccc(-c3cccc4ncsc34)cc2)cs1` (centres unmarked) [Compound B1, 2-(4-(Benzo[d]thiazol-7-yl)phenyl)-N-(2-ethynylthiazol-4-yl)pyrrolidine-1-carboxamide], the EC50 was in the range of 200 to 1000 nM.

In the case of `C#Cc1nc(NC(=O)NCc2ccc(-c3cccc4c3S(=O)(=O)C=C4)cc2)cs1` [Compound A1, 1-(4-(1,1-Dioxidobenzo[b]thiophen-7-yl)benzyl)-3-(2-ethynylthiazol-4-yl)urea], the EC50 is 200 to 1000 nM.

As to `C#Cc1nc(NC(=O)NCc2ccc(-c3cc(C(N)=O)cc4c3cnn4C)cc2)cs1` [Compound A20, 4-(4-((3-(2-Ethynylthiazol-4-yl)ureido)methyl)phenyl)-1-methyl-1H-indazole-6-carboxamide], the EC50 was 1000 to 5000 nM.

Consider `C#Cc1nc(C(=O)N2CCC(c3ccc(C#N)cc3)CC2)cs1` [Compound D24, 4-(1-(2-Ethynylthiazole-4-carbonyl)piperidin-4-yl)benzonitrile], for which the EC50 was not above 200 nM.

On to `C#Cc1nc(C(=O)NCc2ccn(C)n2)cs1` [Compound C119, 2-Ethynyl-N-((1-methyl-1H-pyrazol-3-yl)methyl)thiazole-4-carboxamide], for which the EC50 is more than 5000 nM.

Turning to `C#Cc1nc(C(=O)NCCc2ccc(-c3cccc4c3CC(=O)N4C)cc2)cs1` [Compound C43, 2-Ethynyl-N-(4-(1-methyl-2-oxoindolin-4-yl)phenethyl)thiazole-4-carboxamide], the EC50 was 200 to 1000 nM.

As for `C#Cc1nc(C(=O)NCc2ccc(CCC(=O)OC)cc2)cs1` [Compound C73, Methyl 3-(4-((2-ethynylthiazole-4-carboxamido)methyl)phenyl)propanoate], the EC50 is more than 5000 nM.

`C#Cc1nc(C(=O)NC[C@@H](O)c2ccccc2)cs1` [Compound C135, (S)-2-Ethynyl-N-(2-hydroxy-2-phenylethyl)thiazole-4-carboxamide]: the EC50 lay within 1000 to 5000 nM.

With `C#Cc1nc(C(=O)NCc2ccccc2N)cs1` [Compound C140, N-(2-Aminobenzyl)-2-ethynylthiazole-4-carboxamide], the EC50 was 1000 to 5000 nM.

For the compound `C#Cc1nc(C(=O)N[C@@H](C)c2cccc(Cl)c2)cs1` [Compound C69, (S)—N-(1-(3-Chlorophenyl)ethyl)-2-ethynylthiazole-4-carboxamide], the EC50 is not above 200 nM.

In the case of `C#Cc1nc(C(=O)NCc2ccccn2)cs1` [Compound C126, 2-Ethynyl-N-(pyridin-2-ylmethyl)thiazole-4-carboxamide], the EC50 was in the range of 1000 to 5000 nM.

Turning to `C#Cc1nc(C(=O)NCc2ccccc2C(=O)OC)cs1` [Compound C74, Methyl 2-((2-ethynylthiazole-4-carboxamido)methyl)benzoate], the EC50 lay within 200 to 1000 nM.

As to `C#Cc1nc(NC(=O)NCc2ccc(-c3cccc4ccnc(O)c34)cc2)cs1` [Compound A18, 1-(2-Ethynylthiazol-4-yl)-3-(4-(1-hydroxyisoquinolin-8-yl)benzyl)urea], the EC50 was in the range of 200 to 1000 nM.

With `C#Cc1ncc(C(=O)NCc2ccccc2)s1` [Compound C141, N-Benzyl-2-ethynylthiazole-5-carboxamide], the EC50 was in the range of 1000 to 5000 nM.

(Values after patent US20240101546A1, “HETEROARYL-ACETYLENES, PHARMACEUTICAL COMPOSITIONS THEREOF, AND THEIR THERAPEUTIC APPLICATIONS” (Eubulus Biotherapeutics Inc., priority 2020, published 2024).)
